Source: patent US20210355509A1, “ALTERNATIVE SPLICING REGULATION OF GENE EXPRESSION AND THERAPEUTIC METHODS” (THE CHILDREN'S HOSPITAL OF PHILADELPHIA, priority 2018, published 2021)

Columns and labels:
SMN2 exon 7 [1] = conditions: mouse brain; cited from earlier work
SMN mouse model = conditions: cited from earlier work
SMN2 exon 7 [2] = assay: SMN2/transactivator minigene exon 7 splicing, semi-quantitative RT-PCR; format: cell-based, human
Source text: FIGS. 4a-c show modified SMN2/transactivator minigenes express spliced RNA transcript isoforms to constitutively exclude (CSI3) or include (CSI5) exon7, influencing background expression of the optimized RNAi promoter. […] The 3′ and 5′ Exon7 splicing sites in the SMN2/transactivator minigene were modified to constitutively exclude (CSI3, 3′ modified) or include (CSI5, 5′ modified) exon 7.
FIGS. 5a-b show splicing and activity of CSI and CSI3 minigenes in response to LIM070.
To regulate transactivator expression, the transactivator was cloned downstream of a self-cleaving 2A peptide and the SMN2 minigene comprising exons 6-7 and the 5′ end of exon 8, and minimal intronic intervening sequences necessary to recapitulate SMN2 splicing^38 (FIG. 4a). Note that 10% of the transcripts include exon 7, similar to the native SMN2 genetic state. The transcripts produce transactivator that partially activates the RNAi expression cassette. Thus, the 3′ and 5′ Exon7 splicing sites in the SMN2/transactivator minigene were modified to constitutively exclude (CSI3, 3′ modified) or include (CSI5, 5′ modified) exon 7, which minimizes RNAi promoter background activation^39 (FIGS. 4b-c). […] Also, the entire cassette fits into rAAV.

[3] = mice, oral, 3 mg/Kg, serum; read-out: Cmax (maximum concentration); cited from earlier work
[4] = LMI070 pharmacokinetics in mice, oral; format: in vivo; conditions: 3 mg/Kg
HEK293 cells = assay: De novo exon splicing in response to LMI070, RNA-seq and PCR validation; format: cell-based, human; conditions: LMI070 25 nM, PCR
Description: The following methods were used to obtain the data illustrated in FIGS. 8-15. […] 12 hours after treatment RNA was extracted using Trizol followed by DNAseI treatment. Samples were evaluated for quality control on agilent bioanalyzer and all samples had RIN values >9.8 and were sent for Illumina RiboZero Gold total RNA library preparation and sequencing with an Illumina HiSeq4000. A 150 bp Pair end sequencing reads were obtained from illumina sequencing. Fastq files obtained from the illumina platform were aligned to the Human genome GRCh38 using the STAR aligner. SAM format alignment files output from STAR were sorted, converted to BAM format and indexed using Samtools. To visualize splicing at any region in the alignment BAM files were opened in IGV and visualized using the Sashimi plot function.
To identify regions of interest which contained high levels of differential splicing a custom R program was created. […] These files contained the raw counts obtained at each splice junction as calculated during alignment by STAR. […] 1) Read input files into R. 2) Create unique position IDs for each row (splice site) in the dataset. […] 6) sort the extracted reads from highest to lowest by Mean counts value. […]
The following methods were used to obtain the data in FIG. 16. […] As observed on the PCR, PCR products of higher size were detected on samples treated with LM1070 (FIG. 16). […]

Cas9 = assay: SMN2_CRISPRi regulated Cas9 expression, Western blot; format: cell-based, human; conditions: RG7800 1 μM, HEK293 cells transfected with the SMN2_CRISPRi system
Description: (§1) HEK293 cells were transfected with plasmids encoding the CRISPRi silencing system (dCas9, sgRNA and MCP-Krab expression cassettes). Importantly, the dCas9 was cloned under the SMN2 splice regulated cassette to control dCas9 protein expression with RG7800. 24 hours after transfection, cells were selected using Puromicin (3 μM, 24 h), passaged onto a new plate, and treated with RG7800 (1 μM). HEK293 cells were lysed 36 h after RG7800 treatment using Passive lysis buffer (Promega, CA), and Huntingtin (HTT), Cas9 and Beta Catenin (Beta cat) protein levels were determined by Western Blot. Beta Catenin protein levels were determined as loading control. HTT, Cas9 and Beta Cat protein levels were quantified using the ChemiDoc Imaging System (Bio-Rad) and Imagine Lab analysis Software.

HTT = assay: SMN2_CRISPRi regulated epigenetic silencing, Western blot; format: cell-based, human; conditions: RG7800 1 μM, HEK293 cells transfected with the SMN2_CRISPRi system
Description: as §1

SMN2 minigene Exon 7 = assay: SMN2 minigene PCR splicing assay with RG7800; format: cell-based, human; conditions: RG7800 10 nM, 100 nM, 1 μM and 10 μM; HEK293
Description: HEK293 cells were transfected with plasmids expressing the SMN2 minigene (0.3 μg) and 4 hours later treated with different doses of RG7800 (10 nM, 100 nM, 1 μM and 10 μM). 24 hours after transfection, RNA was harvested, DNAseI treated, and 1 μg of RNA was reverse transcribed to assess SMN2 minigene splicing using PCR. PCR products were separated on a 3% agarose gel and exon 7 production was quantified using the ChemiDoc Imaging System (Bio-Rad) and Imagine Lab analysis Software.

## CC1(C)CC(Oc2ccc(-c3ccc(-c4cn[nH]c4)cc3O)nn2)CC(C)(C)N1 [LMI070]
SMN2 exon 7 [1]
  maximum dose reported to increase SMN2 exon 7 inclusion: 30 mg/kg
SMN mouse model
  minimal dose with therapeutic effects: 1 mg/kg
SMN2 exon 7 [2]; 120 nM, CSI and CSI3 minigenes (FIG. 5)
  exon 7 inclusion at brain-equivalent concentration: induces exon 7 inclusion
SMN2 exon 7 [2]; HEK293 cells, CSI and CSI3 minigenes, 20 h after LMI070 treatment
  exon 7 inclusion in response to LMI070: dose-responsive
[3]
  Cmax: 0.086 µM
[4]
  concentration in the brain: 0.12 µM
HEK293 cells
  de novo exon splicing: novel exons are included

## CCc1nc(C)cn2nc(-c3cc(=O)n4cc(C5CCN(C)CC5)cc(C)c4n3)cc12 [RG7800]
Cas9
  Cas9 protein levels: increase
HTT
  HTT expression levels reduced: about 45%
SMN2 minigene Exon 7
  Exon 7 inclusion in the SMN2 minigene: induction of Exon 7 inclusion
